Experiments:
[1] = intravenously administered to rats; Nonpatent Document 2; cited from earlier work
[2] = system: sugar transporters of the facilitated diffusion type; details: aglycon of phloridzin; reported; cited from earlier work
human SGLT2 = target: T1, human SGLT2 (Homo sapiens, UniProt P31639); experiment: Inhibitory activity against methyl-α-D-glucopyranoside uptake of human SGLT2; type: cell-based; details: SGLT2 inhibition; methyl-α-D-(U-14C)glucopyranoside uptake in CHO-K1 cells stably expressing human SGLT2, 45 minutes at 37° C.
T1 construct: expressed in transfected cells; host or cells: CHO-K1
T1 sequence (P31639 1-672): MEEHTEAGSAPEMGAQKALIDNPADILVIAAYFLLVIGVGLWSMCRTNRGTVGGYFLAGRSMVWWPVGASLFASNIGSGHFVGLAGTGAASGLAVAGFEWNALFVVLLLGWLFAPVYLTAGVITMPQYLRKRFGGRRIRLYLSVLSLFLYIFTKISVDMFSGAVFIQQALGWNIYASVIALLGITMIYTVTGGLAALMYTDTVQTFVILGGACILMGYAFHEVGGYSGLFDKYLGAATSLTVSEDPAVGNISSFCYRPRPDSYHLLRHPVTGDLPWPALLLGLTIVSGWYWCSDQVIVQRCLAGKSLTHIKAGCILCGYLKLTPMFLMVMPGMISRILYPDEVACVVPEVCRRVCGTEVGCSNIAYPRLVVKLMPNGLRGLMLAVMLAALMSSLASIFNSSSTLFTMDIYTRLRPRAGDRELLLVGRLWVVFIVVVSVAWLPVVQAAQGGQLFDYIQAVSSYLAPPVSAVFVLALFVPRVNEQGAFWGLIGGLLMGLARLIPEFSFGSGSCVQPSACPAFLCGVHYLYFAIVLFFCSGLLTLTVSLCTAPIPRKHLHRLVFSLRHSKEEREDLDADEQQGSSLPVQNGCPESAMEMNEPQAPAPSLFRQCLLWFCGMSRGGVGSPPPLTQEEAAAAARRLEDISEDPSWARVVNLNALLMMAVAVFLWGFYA
From the text: Evaluation of Inhibitory Activity Against methyl-α-D-glucopyranoside uptake of human Na^+-glucose cotransporter (SGLT1 and SGLT2)
Human SGLT2 cDNA was amplified by PCR with a cDNA library derived from human kidney (Clontech) as a template, synthetic DNA primers and KOD+ DNA Polymerase. The amplified cDNA was inserted into pcRII-Topo vector by using a Topo TA Cloning Dual Promoter kit. E. coli competent cells (TPO10) were transformed with the plasmid vector, cultured in LB medium containing ampicillin (50 mg/L) to grow ampicillin-resistant clones. The plasmid vector containing human SGLT2 cDNA was purified from the clone in a standard manner. Human SGLT2 cDNA added restriction enzyme recognition sites (Xho I at 5′-end, Hind III at 3′-end) was amplified by PCR with the plasmid vector as a template, synthetic DNA primers containing an additional restriction enzyme recognition site and KOD+ DNA Polymerase. This amplified cDNA was digested with Xho I and Hind III, and ligated into expression vector pcDNA3.1(−) digested with Xho I and Hind III by using a Rapid DNA Ligation kit. E. coli competent cells (DH5α) were transformed with the ligated expression vector and grown in ampicillin-containing LB medium. Human SGLT2 expression vector was purified from the ampicillin-resistant clone in a standard manner.
The human SGLT1 expression vector or the human SGLT2 expression vector was digested with the restriction enzyme Pvu I and transfected into CHO-Kl cells with FuGENE (Roche Diagonostics). After the transfection, the cells were cultured at 37° C. in the presence of 5% CO2 for about 3 weeks in DMEM medium (Gibco) containing penicillin (50 U/mL, SIGMA), streptomycin (50 mg/L, SIGMA), geneticin (200 mg/L, Nacalai Tesque, Inc., Japan) and 20% fetal bovine serum to obtain geneticin-resistant clones. Among these clones, clones stably expressing human SGLT1 or human SGLT2 were selected by the evaluating the sodium-dependent uptake activity of sugar (methyl-α-D-glucopyranoside). […]

IC50 (human SGLT2) [nM] | Compound | adverse effect on intracerebral glucose levels [1] | inhibition of sugar transporters of the facilitated diffusion type [2]
 | O=C(CCc1ccc(O)cc1)c1c(O)cc(O)cc1O [phloretin] | reducing intracerebral glucose levels | strongly inhibit
4 | OC[C@H]1O[C@]2(OCc3ccc(Cc4cc5ccccc5s4)cc32)[C@H](O)[C@@H](O)[C@@H]1O [Example 2, 1,1-Anhydro-1-C-[5-(2-benzothiophenyl)methyl-2-(hydroxymethyl)phenyl]-β-D-glucopyranose] |  | 
4.2 | CCc1ccc(Cc2ccc3c(c2)[C@]2(OC3)O[C@H](CO)[C@@H](O)[C@H](O)[C@H]2O)cc1 [Example 1, 1,1-Anhydro-1-C-[5-(4-ethylphenyl)methyl-2-(hydroxymethyl)phenyl]-β-D-glucopyranose] |  | 
5 | CC(C)c1ccc(Cc2ccc3c(c2)[C@]2(OC3)O[C@H](CO)[C@@H](O)[C@H](O)[C@H]2O)cc1 [Example 4, 1,1-Anhydro-1-C-[5-(4-isopropylphenyl)methyl-2-(hydroxymethyl)phenyl]-β-D-glucopyranose] |  | 
